Results published in US20120082706A1, “MEDICAL DEVICE FOR DRUG DELIVERY” (TERUMO KABUSHIKI KAISHA, priority 2009, published 2012).

Test: Differential scanning calorimetry (DSC) of drug/compound mixtures (solid solution screening)
Type: physicochemical
Description: For the purpose of screening adequate solid dispersions, several exemplary mixtures were prepared, each composed of paclitaxel and a compound of different kind, and these mixtures underwent differential scanning calorimetry (DSC) using a differential scanning calorimeter.
The paclitaxel is a product of SIGMA Corp.
The thus prepared solution was completely freed of ethanol or acetone by vacuum drying. The resulting dry product was placed in an aluminum pan and thereafter underwent DSC in a nitrogen atmosphere at a heating rate of 10° C./min.
For the purpose of observing the properties of the solid solution of HSPC and a drug other than paclitaxel, there were prepared a mixture of HSPC and sirolimus and a mixture of HSPC and simvastatin, as shown in Table 5 below.

CC(=O)O[C@H]1C(=O)[C@@]2(C)[C@H]([C@H](OC(=O)c3ccccc3)[C@]3(O)C[C@H](OC(=O)[C@H](O)[C@@H](NC(=O)c4ccccc4)c4ccccc4)C(C)=C1C3(C)C)[C@]1(OC(C)=O)CO[C@@H]1C[C@@H]2O [Comparative Example 4, paclitaxel]
endothermic peak due to fusion of paclitaxel (DSC thermogram): gave an endothermic peak | Peak due to fusion of paclitaxel (DSC, nitrogen atmosphere, 10° C./min, 10 mg compound + 10 mg paclitaxel, dried from ethanol or acetone): Yes
